From patent US11535596B2 (priority 2020, dated 2022)
Where two headings read alike, the source gives them in different places.

What was measured:
[1] = Drug stability in human liver microsomes; assay type: in vitro ADME
Description: Testing of Drug Stability in Human Liver Microsomes
This assay involves exposing a test compound to vesicles which contain the contents of digestive organelles (endoplasmic reticula) derived from human liver cells. The tests were done by Microconstants Inc., San Diego, Calif., using methods substantially as described in J. R. Hill, “In vitro drug metabolism using liver microsomes,” Curr. Protocols Pharmacol., Chapter 7, Unit 7.8 (2004), John Wiley & Sons, Inc.
The results, in Table 1 below, indicate the percentage decomposition of the test compound after 1 hour. […] Although degraded as rapidly, or even more rapidly than DM, other compounds remain of interest due to their receptor binding activities, as detailed further below.

[2] = molecular target: phencyclidine site of NMDA-type glutamate receptors; assay: NMDA receptor (phencyclidine site) radioligand binding inhibition
Description: In vitro binding assays for the phencyclidine site of NMDA-type glutamate receptors, and for sigma-1 receptors, both of which are known to be bound by DM, were conducted by Sekisui Medical Co., Ltd. of Ibaraki, Japan. In these assays, DM acts as an antagonist at NMDA receptors, which are excitatory in their effects, thereby allowing DM to reduce, calm, and modulate unwanted neuronal activity in neuronal networks that are activated by glutamate agonist activity at NMDA receptors. DM acts as an agonist at sigma-1 receptors, which are inhibitory receptors, thereby allowing DM to reduce unwanted neuronal activity by a second mechanism. Assays for sigma-1 and NMDA (phencyclidine site) receptor affinities, based on inhibition of radioligand binding, provided the results shown in Table 2 below.

sigma-1 receptors = sigma-1 receptors (Homo sapiens (Human), UniProt Q99720); assay: biochemical; assay type: binding; conditions: for Ki: read-out: Sigma-1 Ki
Sequence of sigma-1 receptors (Q99720 whole entry, looked up): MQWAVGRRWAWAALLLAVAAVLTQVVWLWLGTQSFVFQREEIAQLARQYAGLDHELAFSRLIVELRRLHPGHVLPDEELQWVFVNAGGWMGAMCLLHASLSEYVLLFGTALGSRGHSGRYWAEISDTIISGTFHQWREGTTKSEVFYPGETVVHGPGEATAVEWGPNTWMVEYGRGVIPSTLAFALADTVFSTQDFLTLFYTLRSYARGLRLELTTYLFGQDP

[3] = Caco-2 bidirectional permeability assay; assay type: in vitro ADME; conditions: human
Description: The human colon carcinoma cell Caco-2 provides a well-established and effective model for predicting intestinal absorption of chemicals, and in determining the mechanism of transport. […] The method is used to assess the bidirectional permeability of a test compound, from the apical to the basolateral side (A-B) of a Caco-2 cell monolayer membrane, and vice versa (B-A). R. B. van Breemen, Y. Li, “Caco-2 cell permeability assays to measure drug absorption,” Expert Opin. Drug Metab. […] The transport rate of a compound across the monolayer is highly predictive of the in vivo absorption of the compound across the gut wall, and the Caco-2 permeability assay is an FDA-recommended method for evaluating the absorption of orally-administered drugs. Results of this assay for selected reference drugs and compounds of the invention are set out in Table 3.

human recombinant hERG = human recombinant hERG (Homo sapiens (Human), UniProt Q12809); assay: hERG radioligand (3H-astemizole) binding assay
Sequence of human recombinant hERG (Q12809 whole entry, looked up): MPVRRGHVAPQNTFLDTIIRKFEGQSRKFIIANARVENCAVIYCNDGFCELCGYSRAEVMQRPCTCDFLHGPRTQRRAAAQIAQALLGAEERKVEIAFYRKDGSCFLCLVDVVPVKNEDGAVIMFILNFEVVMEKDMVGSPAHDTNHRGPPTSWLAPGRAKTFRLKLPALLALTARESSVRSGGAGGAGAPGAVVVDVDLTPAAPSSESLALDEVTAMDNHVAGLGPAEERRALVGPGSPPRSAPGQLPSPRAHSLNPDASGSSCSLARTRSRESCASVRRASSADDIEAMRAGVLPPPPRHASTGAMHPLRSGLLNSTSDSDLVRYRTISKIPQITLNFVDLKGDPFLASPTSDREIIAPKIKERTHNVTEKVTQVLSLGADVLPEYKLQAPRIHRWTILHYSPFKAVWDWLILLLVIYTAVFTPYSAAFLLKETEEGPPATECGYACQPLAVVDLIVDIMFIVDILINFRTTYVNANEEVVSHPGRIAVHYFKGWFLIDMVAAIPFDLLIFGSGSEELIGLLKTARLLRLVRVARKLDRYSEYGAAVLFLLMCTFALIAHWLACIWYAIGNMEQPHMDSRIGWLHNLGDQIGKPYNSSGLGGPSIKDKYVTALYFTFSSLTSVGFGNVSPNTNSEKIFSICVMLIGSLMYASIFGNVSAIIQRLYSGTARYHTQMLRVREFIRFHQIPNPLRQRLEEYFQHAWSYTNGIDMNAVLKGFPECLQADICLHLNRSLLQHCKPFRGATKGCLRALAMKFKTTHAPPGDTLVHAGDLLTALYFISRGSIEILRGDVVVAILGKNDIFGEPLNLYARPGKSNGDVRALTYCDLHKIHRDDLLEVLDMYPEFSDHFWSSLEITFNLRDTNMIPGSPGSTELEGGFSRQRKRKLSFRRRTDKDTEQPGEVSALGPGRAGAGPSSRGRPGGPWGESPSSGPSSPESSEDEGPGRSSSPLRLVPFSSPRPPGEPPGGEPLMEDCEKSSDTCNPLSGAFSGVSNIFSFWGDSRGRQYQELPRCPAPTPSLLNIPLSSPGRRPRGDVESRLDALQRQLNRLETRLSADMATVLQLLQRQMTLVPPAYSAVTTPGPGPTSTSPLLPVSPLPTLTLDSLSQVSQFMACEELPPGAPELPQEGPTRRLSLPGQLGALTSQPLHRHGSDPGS
Description: Cardiac Potassium Channel (hERG) Assays
The human ether-a-go-go related gene (hERG) encodes the inward-rectifying voltage-gated potassium channel (IKr) in the heart, which is involved in cardiac repolarization. Inhibition of the hERG current causes QT interval prolongation, potentially resulting in ventricular tachyarrhythmia, and the detection of this potential liability is desirable at an early stage of drug discovery.

[4] = molecular target: human serotonin transporter (Homo sapiens (Human), UniProt P31645); assay: biochemical; conditions: 3H-imipramine binding, HEK-293 membranes
Description: Serotonin Transporter (SERT) Assay
The serotonin transporter (SERT) is a monoamine transporter protein that transports serotonin from the synaptic cleft back to the presynaptic neuron (serotonin reuptake.) Serotonin modulates emotional states in humans, and inhibition of SERT activity is the basis for the SSRI class of antidepressants.

κ opioid receptor = κ opioid receptor (Homo sapiens (Human), UniProt P41145); assay: biochemical; conditions: 3H-diprenorphine binding
μ opioid receptor = μ opioid receptor (Homo sapiens (Human), UniProt P35372); assay: μ opioid receptor radioligand (3H-diprenorphine) binding assay
[5] = inhibition of radioligand binding, read-out: Sigma-1 IC50
[6] = inhibition of radioligand binding

Work on `[2H]C([2H])(Oc1ccc2c(c1)[C@]13CCCC[C@@H]1[C@H](C2)N(C)CC3)C(F)F` [CNS1-D2, (1S,9S,10S)-4-(1,1-dideuterio-2,2-difluoroethoxy)-17-methyl-17-azatetracyclo[7.5.3.0^1,10.0^2,7]heptadeca-2(7),3,5-triene] yielded a half-life [1] of 123 min, an IC50 [2] greater than 30 µM and an IC50 (sigma-1 receptors; [5]) of 57.8 nM. The Ki (sigma-1 receptors; [6]) was 40.6 nM.

With `[2H]C([2H])(Oc1ccc2c(c1)[C@]13CCCC[C@@H]1[C@H](C2)N(C([2H])([2H])[2H])CC3)C(F)F` [CNS1-D5, (1S,9S,10S)-4-(1,1-dideuterio-2,2-difluoroethoxy)-17-(trideuteriomethyl)-17-azatetracyclo[7.5.3.0^1,10.0^2,7]-heptadeca-2,4,6-triene] the half-life [1] was greater than 240 min, the “% decomposition at 1 hour” value [1] was 9.7% and the Papp A→B at 0.1 μM ([3]; 0.1 μM, apical to basolateral) was 14.4 ×10⁻⁶ cm/s. It also gave a Papp B→A at 0.1 μM ([3]; 0.1 μM, basolateral to apical) of 12.5 ×10⁻⁶ cm/s, a Papp A→B at 1 μM ([3]; 1 μM, apical to basolateral) of 18.4 ×10⁻⁶ cm/s and a Papp B→A at 1 μM ([3]; 1 μM, basolateral to apical) of 15.4 ×10⁻⁶ cm/s. The IC50 (human recombinant hERG) was 34.5 µM, the Ki (human recombinant hERG) was 7.48 µM and the Ki [2] was 9.9 µM. It also gave a Ki (sigma-1 receptors; [6]) of 22 nM, an IC50 ([4]; read-out: SERT IC50) of 44.1 nM and a Ki ([4]; read-out: SERT Ki) of 26.2 nM. The IC50 (κ opioid receptor; read-out: Opiate κ IC50) was 29.8 µM, the Ki (κ opioid receptor; read-out: Opiate κ Ki) was 12 µM and the IC50 (μ opioid receptor) was 54.7 µM. For the same compound, the Ki (μ opioid receptor) was 10.1 µM.

With `CN1CC[C@@]23CCCC[C@@H]2C1Cc1ccc(OCC(F)F)cc13` [CNS1] the “rate of metabolism and degradation compared with DM” value [1] was “metabolized and degraded less rapidly than DM” and the “% decomposition at 1 hour” value [1] was 6.1%.

With `CN1CC[C@@]23CCCC[C@@H]2C1Cc1ccc(OCCF)cc13` [CNS2] the “rate of metabolism and degradation compared with DM” value [1] was “metabolized and degraded less rapidly than DM” and the “% decomposition at 1 hour” value [1] was 15.4%.

In the case of `CN1CC[C@@]23CCCC[C@@H]2[C@@H]1Cc1ccc(OCc2ccncc2)cc13` [CNS4], the “% decomposition at 1 hour” value [1] is reported as 100%.

For `CN1CC[C@@]23CCCC[C@@H]2[C@@H]1Cc1ccc(O)c(Br)c13` [CNS6, (1S,9S,10S)-3-bromo-4-hydroxy-17-methyl-17-azatetracyclo[7.5.3.0^1,10.0^2,7]-heptadeca-2(7),3,5-triene], the “% decomposition at 1 hour” value [1] was 56%, the IC50 [2] was greater than 30 µM and the IC50 (sigma-1 receptors; [5]) was 172 nM. For the same compound, the Ki (sigma-1 receptors; [6]) was 121 nM.

Compound `CN1CC[C@@]23CCCCC2C1Cc1ccc(OCC(F)F)c(Br)c13` (some centres unmarked) [CNS6-A1-D2] has a t1/2 [1] of 60 min, an IC50 [2] greater than 30 µM and an IC50 (sigma-1 receptors; [5]) of 21.8 nM. The Ki (sigma-1 receptors; [6]) was 15.3 nM.

`COc1ccc2c(c1Br)[C@]13CCCCC1[C@H](C2)N(C)CC3` (some centres unmarked) [CNS6-A2] gave an IC50 (sigma-1 receptors; [5]) of 247 nM.

Compound `COc1cc2c(cc1Br)CC1C3CCCC[C@@]23CCN1C` (some centres unmarked) [CNS7-M] has an IC50 (sigma-1 receptors) greater than 10000 nM.
